# Assay results reported in patent publication US7015228B2, “4-amino-2-(2-pyridyl)pyrimidines as microbicidal active substances” (Ciba Specialty Chemicals Corporation, priority 2001, dated 2006).
# Assays:
# [1] = test system: S. choleraesuis ATCC 10708; assay: Determination of the bactericidal activity (logarithmic reduction in organism count); type: cell-based, Salmonella choleraesuis; conditions: contact for 30 minutes at a substance concentration of 120 μg/mL
# Description: (§1) Determination of the Bactericidal Activity of Selected Compounds
# (§2) Casein-soybean flour-peptone broth for preparation of pre-cultures of test bacteria
# (§3) Examples of Test Organisms:
# (§4) • Staphylococcus aureus ATCC 6538 • Escherichia coli ATCC 10536 • Salmonella choleraesuis ATCC 10708 Procedure:
# (§5) The test substances are dissolved in dimethyl sulfoxide (DMSO) and tested in a concentration of 120 μg/ml.
# (§6) Bacteria are incubated overnight in CASO broth and adjusted to an organism count of 1–5×10^5 CFU/ml using 0.85% sodium chloride solution.
# (§7) The test substances are pre-pipetted into microtitre plates in amounts of 8 μl per well.
# (§8) The adjusted test organism suspensions are added in amounts of 192 μl per well to the test substances and mixed. After defined contact times, the test batches are mixed, an aliquot is withdrawn and diluted in several steps in a dilution series of 1:10 in a suitable inactivation medium.
# The test plates are incubated for 24 hours at 37° C. […]
# (§9) One microtitre plate is used for each test organism.
# (§10) All the substances are tested in duplicate.
# [2] = test system: E. coli NCTC 8196; assay: as above; type: cell-based, Escherichia coli; conditions: contact for 30 minutes at a substance concentration of 120 μg/mL
# [3] = test system: S. aureus ATCC 6538; assay: as above; type: cell-based, Staphylococcus aureus; conditions: contact for 30 minutes at a substance concentration of 120 μg/mL
# Description: as §1, §2, §3, §4, §5, §6, §7, §8
# The test plates are incubated for 24 hours at 37° C.
# (§11) After incubation, the growth is determined on the basis of the turbidity of the test batches (optical density) at 620 nm in a microplate reader.
# as §9, §10
# [4] = test system: Escherichia coli NCTC 8196; assay: Minimum inhibitory concentration (MIC) in microtitre plates; type: cell-based; conditions: for Minimum inhibitory concentration (MIC) E. coli: Table 7, 48 hours at 37° C., MIC = ≦20% growth compared to control; for Minimum inhibitory concentration (MIC) E. coli NCTC 8196: Table 8, * = significant inhibition of growth, but not complete inhibition
# Description: (§12) Determination of the Minimum Inhibitory Concentration (MIC Value) in Microtitre Plates
# (§13) Casein-soybean flour-peptone broth for preparation of pre-cultures of test bacteria and yeast.
# (§14) Mycological slant agar for the pre-culture of moulds
# as §3
# (§15) The test substances are pre-dissolved in dimethyl sulfoxide (DMSO) and tested in a dilution series of 1:2.
# (§16) Bacteria and yeast are cultured overnight in CASO broth, the mould is cultured overnight on mycological slant agar, and washed off using 10 ml of 0.85% sodium chloride solution (+0.1% Triton X-100).
# (§17) All the test organisms are adjusted to an organism count of 1–5×10^6 CFU/ml using 0.85% sodium chloride solution.
# as §7
# (§18) Pre-diluted organism suspensions are diluted 1:100 in CASO broth (bacteria and yeast) or Sabouraud 2% glucose broth (mould) and are added in amounts of 192 μl per well to the test substances.
# (§19) The test batches are incubated for 48 hours at 37° C. (bacteria and yeast) or for 5 days at 28° C. (mould).
# as §11
# (§20) The minimum inhibitory concentration (MIC value) is the concentration of substance at which there is found (compared to the growth of the control) an appreciable inhibition of growth (≦20% growth) of the test organisms.
# (§21) One microtitre plate is used for each test organism and substance concentration. All the substances are tested in duplicate.
# [5] = test system: Staphylococcus hominis DMS 20328; assay: as above; type: cell-based; conditions: Table 7; 48 hours at 37° C.; MIC = ≦20% growth compared to control
# Description: as §12, §13, §14, §3, §15, §16, §17, §7, §18, §19, §11, §20, §21
# [6] = test system: Enterococcus hirae ATCC 10541; assay: Minimum inhibitory concentration (MIC), further microorganisms; type: cell-based; conditions: Table 8; * = significant inhibition of growth, but not complete inhibition
# Description: as §12, §13, §14, §15, §16, §17, §7, §18, §19, §11, §20, §21
# [7] = test system: Epidermophyton floccosum DSM 10709; assay: as above; type: cell-based; conditions: Table 8; * = significant inhibition of growth, but not complete inhibition
# Description: as §12, §13, §14, §15, §16, §17, §7, §18, §19, §11, §20, §21
# [8] = test system: Micrococcus luteus ATCC 9341; assay: as above; type: cell-based; conditions: Table 8; * = significant inhibition of growth, but not complete inhibition
# Description: as §12, §13, §14, §15, §16, §17, §7, §18, §19, §11, §20, §21
# [9] = test system: S. epidermidis ATCC 12228; assay: as above; type: cell-based; conditions: Table 8; * = significant inhibition of growth, but not complete inhibition
# Description: as §12, §13, §14, §15, §16, §17, §7, §18, §19, §11, §20, §21
# [10] = test system: Staphylococcus aureus ATCC 9144; assay: as above; type: cell-based; conditions: Table 8; * = significant inhibition of growth, but not complete inhibition
# Description: as §12, §13, §14, §15, §16, §17, §7, §18, §19, §11, §20, §21
# [11] = test system: Trichophyton mentagrophytes ATCC 9533; assay: as above; type: cell-based; conditions: Table 8; * = significant inhibition of growth, but not complete inhibition
# Description: as §12, §13, §14, §15, §16, §17, §7, §18, §19, §11, §20, §21
SMILES,"Logarithmic reduction in organism count, S. choleraesuis ATCC 10708 [1]","Logarithmic reduction in organism count, E. coli NCTC 8196 [2]","Logarithmic reduction in organism count, S. aureus ATCC 6538 [3]",Minimum inhibitory concentration (MIC) E. coli [4] [µg/mL],Minimum inhibitory concentration (MIC) E. coli NCTC 8196 [4],Minimum inhibitory concentration (MIC) S. hominis [5] [µg/mL],Minimum inhibitory concentration (MIC) Enterococcus hirae ATCC 10541 [6] [µg/mL],Minimum inhibitory concentration (MIC) Epidermophyton floccosum DSM 10709 [7],Minimum inhibitory concentration (MIC) Micrococcus luteus ATCC 9341 [8] [µg/mL],Minimum inhibitory concentration (MIC) S. epidermidis ATCC 12228 [9] [µg/mL],Minimum inhibitory concentration (MIC) Staphylococcus aureus ATCC 9144 [10],Minimum inhibitory concentration (MIC) Trichophyton mentagrophytes ATCC 9533 [11]
CCc1c(C)nc(-c2ccccn2)nc1NCCCCCCCCCCCCN [Compound of formula 7],<1 log,≦1 log,2 log,,,,,,,,,
CCCCCCCCNc1nc(-c2ccccn2)nc(C)c1CC [Compound of formula 9],<1 log,<1 log,<1 log,,,,,,,,,
CCCCCCCCCNc1nc(-c2ccccn2)nc(C)c1CC [Compound of formula 10],<1 log,<1 log,1–2 log,,,,,,,,,
CCCCCCCCCCNc1nc(-c2ccccn2)nc(C)c1CC [Compound of formula 11],<1 log,≦1 log,1–2 log,,,,,,,,,
CCCCCCCCCCCCNc1nc(-c2ccccn2)nc(C)c1CC [Compound of formula 12],<1 log,<1 log,1–2 log,,,,,,,,,
Cc1cc(NCCCCCCCCCN)nc(-c2ccccn2)n1 [Compound of formula 18],<1 log,<1 log,1 log,,,,,,,,,
Cc1cc(NCCCCCCCCCCCCN)nc(-c2ccccn2)n1 [Compound of formula 19],<1 log,≦1 log,2–3 log,,,,,,,,,
CCCCCCCCNc1cc(C)nc(-c2ccccn2)n1 [Compound of formula 21],<1 log,<1 log,1–2 log,,,,,,,,,
CCCCCCCCCNc1cc(C)nc(-c2ccccn2)n1 [Compound of formula 22],<1 log,<1 log,1–2 log,,,,,,,,,
CCCCCCCCCCNc1cc(C)nc(-c2ccccn2)n1 [Compound of formula 23],<1 log,<1 log,3 log,,,,,,,,,
CCCCCCCCCCCCNc1cc(C)nc(-c2ccccn2)n1 [Compound of formula 24],<1 log,≦1 log,2 log,,,,,,,,,
NCCCCCCCCCNc1cc(C(F)(F)F)nc(-c2ccccn2)n1 [Compound of formula 30],≦1 log,<1 log,≦1 log,,,,,,,,,
CCCCCCCNc1cc(C(F)(F)F)nc(-c2ccccn2)n1 [Compound of formula 32],≦1 log,<1 log,<1 log,,,,,,,,,
CCCCCCCCNc1cc(C(F)(F)F)nc(-c2ccccn2)n1 [Compound of formula 33],<1 log,<1 log,<1 log,,,,,,,,,
CCCCCCCCCNc1cc(C(F)(F)F)nc(-c2ccccn2)n1 [Compound of formula 34],<1 log,<1 log,<1 log,,,,,,,,,
CCCCCCCCCCNc1cc(C(F)(F)F)nc(-c2ccccn2)n1 [Compound of formula 35],<1 log,<1 log,<1 log,,,,,,,,,
CCCCCCCCCCCCCCCCNc1cc(C(F)(F)F)nc(-c2ccccn2)n1 [Compound of formula 37],<1 log,<1 log,1–2 log,,,,,,,,,
CC(C)c1cc(NCCCCCCCCCN)nc(-c2ccccn2)n1 [Compound of formula 42],<1 log,≦1 log,2 log,,,,,,,,,
CCCCCCCCNc1cc(C(C)(C)C)nc(-c2ccccn2)n1 [Compound of formula 57],<1 log,<1 log,,,,,,,,,,
CC(C)(C)c1cc(NCCc2ccccc2)nc(-c2ccccn2)n1 [compound 63],,,,>120,*60 μg/mL,3.75,30,*15 μg/mL,7.5,30,15 µg/mL,*60 μg/mL
CCCCCCCNc1nc(-c2ccccn2)nc(C)c1C(C)C [compound 68],,,,>120,>30 µg/mL,7.5,7.5,60* μg/mL,3.75,15,15 µg/mL,>60 µg/mL
CCCCCCCCCNc1nc(-c2ccccn2)nc(C)c1C(C)C [compound 70],,,,>120,>60 µg/mL,3.75,3.75,*7.5 μg/mL,1.0,7.5,7.5 µg/mL,15 µg/mL
CCCCCCCCCCNc1nc(-c2ccccn2)nc(C)c1C(C)C [compound 71],,,,>80,>60 µg/mL,5,7.5,60 µg/mL,1.9,7.5,7.5 µg/mL,*30 μg/mL
CCCCCCCCCCNc1cc(CCOC)nc(-c2ccccn2)n1 [compound 83],,,,>120,>60 µg/mL,7.5,30,>60 µg/mL,3.75,15,*15 μg/mL,>60 µg/mL
